How the values were obtained:
Experiment in all cases: relative viability (nuclei count vs DMSO), 5 days (fraction); higher = more cells survive
[1] = compound: Cn1cncc1[C@@](N)(c1ccc(Cl)cc1)c1ccc2c(c1)c(-c1cccc(Cl)c1)cc(=O)n2C [Tipifarnib] + CC(C)C[C@H](NC(=O)[C@H](Cc1ccccc1)NC(=O)c1cnccn1)B(O)O [Bortezomib] (partner 0.002 µM)
Summary of the method: (§1)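 Relative viability is defined as nuclei in treated wells over nuclei in vehicle wells. Duplicate plates were run and medians reported. Lung cancer cell lines in 1536-well plates were dosed by pin tool one day after seeding, with one drug or with a fixed anchor-drug dose plus five library-drug doses (not always all listed) in √10 steps, and nuclei were counted after 5 days.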

[2] = compound: Cn1cncc1[C@@](N)(c1ccc(Cl)cc1)c1ccc2c(c1)c(-c1cccc(Cl)c1)cc(=O)n2C [Tipifarnib] + CS(=O)(=O)N1CCN(Cc2cc3nc(-c4cccc5[nH]ncc45)nc(N4CCOCC4)c3s2)CC1 [Pictilisib] (partner 1 µM)
Summary of the method: as §1

[3] = compound: Cn1cncc1[C@@](N)(c1ccc(Cl)cc1)c1ccc2c(c1)c(-c1cccc(Cl)c1)cc(=O)n2C [Tipifarnib] + O=C(c1cc(Cc2n[nH]c(=O)c3ccccc23)ccc1F)N1CCN(C(=O)C2CC2)CC1 [Olaparib] (partner 8 µM)
Summary of the method: as §1

[4] = compound: Cn1cncc1[C@@](N)(c1ccc(Cl)cc1)c1ccc2c(c1)c(-c1cccc(Cl)c1)cc(=O)n2C [Tipifarnib] + CC(=O)Nc1cccc(-n2c(=O)n(C3CC3)c(=O)c3c(Nc4ccc(I)cc4F)n(C)c(=O)c(C)c32)c1 [Trametinib] (partner 0.02 µM)
Summary of the method: as §1

Cell Line | relative viability ([1]; first compound 0.01 µM) | relative viability ([1]; first compound 0.03162 µM) | relative viability ([1]; first compound 0.1 µM) | relative viability ([1]; first compound 0.3162 µM) | relative viability ([1]; first compound 1 µM) | relative viability ([2]; first compound 0.01 µM) | relative viability ([2]; first compound 0.03162 µM) | relative viability ([2]; first compound 0.1 µM) | relative viability ([2]; first compound 0.3162 µM) | relative viability ([2]; first compound 1 µM) | relative viability ([3]; first compound 0.01 µM) | relative viability ([3]; first compound 0.03162 µM) | relative viability ([3]; first compound 0.1 µM) | relative viability ([3]; first compound 0.3162 µM) | relative viability ([3]; first compound 1 µM) | relative viability ([4]; first compound 0.01 µM) | relative viability ([4]; first compound 0.03162 µM) | relative viability ([4]; first compound 0.1 µM) | relative viability ([4]; first compound 0.3162 µM) | relative viability ([4]; first compound 1 µM)
201T | 1.12 | 1.14 | 1.06 | 1.05 | 0.788 | 0.633 | 0.682 | 0.664 | 0.559 | 0.551 | 0.851 | 0.86 | 0.83 | 0.733 | 0.793 | 0.75 | 0.734 | 0.722 | 0.656 | 0.649
A549 |  |  |  |  |  | 0.53 | 0.44 | 0.387 | 0.256 | 0.22 | 0.265 | 0.276 | 0.245 | 0.219 | 0.109 |  |  |  |  | 
A-427 | 0.987 | 0.941 | 0.964 | 0.856 | 0.634 | 0.675 | 0.511 | 0.673 | 0.677 | 0.373 | 0.834 | 0.696 | 0.697 | 0.694 | 0.727 | 0.872 | 0.758 | 0.633 | 0.654 | 0.549
ABC-1 | 0.31 |  | 0.212 | 0.253 | 0.291 | 0.808 |  | 0.623 | 0.583 | 0.492 | 0.7 | 0.776 | 0.819 | 0.986 | 0.912 |  |  |  |  | 
BEN | 0.81 | 0.81 | 0.628 | 0.652 | 0.604 | 0.543 | 0.587 | 0.543 | 0.472 | 0.417 | 1.26 | 1.11 | 0.954 | 0.96 | 0.954 | 0.95 | 0.87 | 0.873 | 0.856 | 0.761
CAL-12T | 0.791 | 0.75 | 0.714 | 0.719 | 0.318 | 0.388 | 0.329 | 0.384 | 0.414 | 0.32 | 0.717 | 0.587 | 0.527 | 0.455 | 0.465 | 0.359 | 0.289 | 0.234 | 0.222 | 0.177
COR-L23 | 0.914 | 0.647 | 0.708 | 0.501 | 0.486 | 0.816 | 0.509 | 0.458 | 0.383 | 0.298 | 0.403 | 0.289 | 0.335 | 0.255 | 0.258 | 0.609 | 0.301 | 0.329 | 0.33 | 0.277
COR-L 105 | 0.869 | 0.591 | 0.706 | 0.444 | 0.403 | 0.47 | 0.33 | 0.357 | 0.353 | 0.355 | 0.691 | 0.725 | 0.59 | 0.546 | 0.584 | 0.409 | 0.491 | 0.427 | 0.43 | 0.369
Calu-6 | 0.928 | 0.662 | 0.634 | 0.529 | 0.544 | 0.891 | 0.641 | 0.555 | 0.442 | 0.386 | 0.532 | 0.498 | 0.514 | 0.502 | 0.466 |  |  |  |  | 

Source: the supplement of paper PMC10307832
